# Results taken from patent US20240285626A1, “INFIGRATINIB FOR TREATMENT OF FGFR3-RELATED SKELETAL DISEASES DURING PREGNANCY” (INSERM (INSTITUT NATIONAL DE LA SANTÉ ET DE LA RECHERCHE …, priority 2018, published 2024).
# What was measured:
# [1] = system: Fgfr3Y367C/+ pups; type: in vivo, mice
# Protocol: We treated pregnant female Fgfr3^Neo/Y367C mice that were mated with Cre^CMV/+ male mice (Pannier, S., Couloigner, V., Messaddeq, N., Elmaleh-Bergès, M., Munnich, A., Romand, R., & Legeai-Mallet, L. (2009). Activating Fgfr3 Y367C. mutation causes hearing loss and inner ear defect in a mouse model of chondrodysplasia. Biochimica et Biophysica Acta (BBA)-Molecular Basis of Disease, 1792(2), 140-147.). We injected BGJ398 (4 mg/kg) subcutaneously in 5 pregnant mice at day E14.5 continuing daily through day 1 (after birth). The pregnant mice received 5 injections of BGJ398 before delivery. We applied isofluorane inhalation to the pregnant mice during 20 seconds before the subcutaneous injections. All the pups were analyzed at day 1 after birth. At necropsy, all the long bones were measured and embedded in paraffin and were submitted to histology and immunology.
# [2] = system: Fgfr3Y367C/+ pups exhibiting dwarfism; conditions: Komla-Ebri et al 2016; Biosse Duplan et al 2016; cited from earlier work
# [3] = Fgfr3Y367C/+ pups, day 1 after birth, mothers 4 mg/kg s.c. daily from E14.5, vs vehicle
# [4] = femur histology, H&E staining, vs vehicle, data not shown
structure (smiles),measurement,setting,value
"CCN1CCN(c2ccc(Nc3cc(N(C)C(=O)Nc4c(Cl)c(OC)cc(OC)c4Cl)ncn3)cc2)CC1 [BGJ398, 3-(2,6-dichloro-3,5-dimethoxyphenyl)-1-[6-[4-(4-ethylpiperazin-1-yl)anilino]pyrimidin-4-yl]-1-methylurea]",skeletal phenotype at birth,[1]; 4 Fgfr3Y367C/+ pups that received BGJ398 vs 5 that received vehicle,improvement of the skeletal phenotype
same,"length of the upper limbs (humerus, ulna, radius), in words","[1]; FIG. 1A-C, pups at day 1, mothers 4 mg/kg s.c.",significant improvement of the length
same,"length of the lower limbs (femur, tibia), in words","[1]; FIG. 2A-B, pups at day 1, mothers 4 mg/kg s.c.",improvement of the length
same,improvement of the size of tibia,[1]; [3],+4.32%
same,increase of the length of humerus,[1]; [3],+4.35%
same,increase of the length of ulna,[1]; [3],+6.12%
same,organization of chondrocytes in the proliferative zone of the growth plate cartilage,[1]; [4],well organized
same,size of the hypertrophic chondrocytes in the hypertrophic zone,[1]; [4],increased
same,placental transfer,"[1]; mouse, in vivo",cross the placenta at therapeutic level
same,skeletal anomalies that occurred during embryonic stages,[1]; treatment during 5 days in pregnant mice,successfully repressed skeletal anomalies
same,pathological hallmarks of ACH,[2],corrects pathological hallmarks of ACH
